According to patent US20070207202A1, “PHARMACEUTICAL FORMULATIONS OF A MONOHYDRATE CRYSTAL FORM OF 2-(3-FLUORO-4-HYDROXYPHENYL)-7-VINYL-1,3-BENZOXAZOL-5-OL” (Wyeth, priority 2006, published 2007):

How the values were obtained:
Assay type in all cases: physicochemical
[1] = Dynamic vapor sorption (hygroscopicity); conditions: for DVS gain: 0–90% RH
Description: Dynamic Vapor Sorption (Allentown, Pa.) was used to measure the hygroscopicity of the anhydrate and monohydrate of the invention (see FIGS. 6 and 7). The step conditions were three hours each at 0%, 30%, 52.5%, 75% and 90% RH, two full cycles.

[2] = Separate long term study of micronized and non-micronized anhydrate (XRPD)
[3] = Medium term stability of crystal form (XRPD and TGA)
Description: Samples of monohydrate were stored at room temperature, 56° C., and 70° C. for one week. At room temperature, humidity was maintained at 0% RH. Humidity was not controlled for the higher temperatures.
The samples were analyzed by XRPD and TGA.

[4] = Short term stability of crystal form (XRPD)
[5] = Water solubility of the two crystal forms
[6] = Long term stability of crystal forms (XRPD, TGA, HPLC); conditions: non-micronized, 40° C./75% RH (monohydrate also 40° C. without humidity control), three months
Description: Non-micronized samples of monohydrate and anhydrate were stored at 40° C./75% RH for three months. The monohydrate was also stored at 40° C. without humidity control. During the three months, the samples were checked after two weeks, one month, two months, and three months.

| DVS gain ([1]; listed as anhydrous crystal form) | crystal form transformation by XRPD ([2]; micronized samples, 25° C./60% RH, three months) | crystal form transformation by XRPD ([2]; micronized samples, 40° C./75% RH, one month) | crystal form transformation by XRPD ([2]; non-micronized samples, 40° C./75% RH) | hygroscopicity (DVS weight gain, in words) [1] | DVS gain ([1]; listed as monohydrate crystal form) | crystal form stability by XRPD and TGA ([3]; 56° C., humidity not controlled, one week) | crystal form stability by XRPD and TGA ([3]; 70° C., humidity not controlled, 1 day) | crystal form stability by XRPD and TGA ([3]; 70° C., humidity not controlled, 4 days) | crystal form stability by XRPD and TGA ([3]; 70° C., humidity not controlled, 7 days) | crystal form stability by XRPD and TGA ([3]; room temperature, 0% RH, one week) | crystal form stability by XRPD ([4]; 70° C., one hour) | crystal form stability by XRPD ([4]; 90° C., one half hour) | crystal form stability by XRPD ([4]; 90° C., one hour) | chemical stability by HPLC [6] | crystal form transformation by XRPD and TGA [6] | SMILES | water solubility compared between the two forms (in words) [5] |
| --- | --- | --- | --- | --- | --- | --- | --- | --- | --- | --- | --- | --- | --- | --- | --- | --- | --- |
| 0.2% gain (0–90% RH) | did not transform to the monohydrate | partially transform to the monohydrate | did not show any obvious transformation |  |  |  |  |  |  |  |  |  |  |  |  | C=Cc1cc(O)cc2nc(-c3ccc(O)c(F)c3)oc12 [anhydrate, 2-(3-fluoro-4-hydroxyphenyl)-7-vinyl-1,3-benzoxazol-5-ol] |  |
|  |  |  |  | largely non-hygroscopic | 0.1% gain (0–90% RH) | no obvious dehydration | no obvious hydration | partially dehydrated | mostly dehydrated | no obvious dehydration | stable | partially dehydrated | completely dehydrated | chemically stable | did not transform | C=Cc1cc(O)cc2nc(-c3ccc(O)c(F)c3)oc12 [monohydrate, 2-(3-fluoro-4-hydroxyphenyl)-7-vinyl-1,3-benzoxazol-5-ol] | significantly lower solubility than the anhydrate |
